Laboratory results as given in patent US9365522B2, “Pyrazole amide derivative” (AMGEN INC., priority 2015, dated 2016).

What follows are compounds tested against T1, ligand binding domain of human ROR gamma (Homo sapiens, UniProt P51449) (assay: ROR gamma reporter gene assay (GAL4-RORγ LBD luciferase, Dual-Glo)). Details: HEK293T cells transfected with pM-ROR gamma, 8 concentrations 3.5 nM to 10.5 μM, 24 h incubation; read-out: result (pIC50, inhibition of RORγ transcriptional activity) (converted).
T1 construct: NM_001001523; expressed in transfected cells; host or cells: HEK293T
T1 sequence (P51449 247-497 isoform P51449-2): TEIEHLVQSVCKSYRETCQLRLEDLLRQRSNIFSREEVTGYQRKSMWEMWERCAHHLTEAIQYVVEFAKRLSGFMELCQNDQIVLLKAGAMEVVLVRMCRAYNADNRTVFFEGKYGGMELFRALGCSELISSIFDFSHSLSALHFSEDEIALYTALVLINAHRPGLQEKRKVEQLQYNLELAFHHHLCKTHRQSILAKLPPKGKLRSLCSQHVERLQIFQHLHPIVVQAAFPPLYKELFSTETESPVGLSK
Format: cell-based
Method in brief: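 Inhibition of RORγ-driven transcription was measured in HEK293T cells expressing a GAL4 fusion of the human RORγ LBD (aa 247-497), with renilla luciferase as internal control. Cells in 10% charcoal-stripped serum received compound (3.5 nM–10.5 μM) for 24 h.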

IC50 | Structure (SMILES)
4900 pM | O=C(CN(CC12CC3CC(CC(C3)C1)C2)C(=O)c1cnn([C@H]2CC[C@H](C(=O)O)CC2)c1C(F)(F)F)c1c(Cl)cncc1Cl [Example 123, trans-4-(4-(1-adamantylmethyl-(2-(3,5-dichloropyridin-4-yl)-2-oxoethyl)carbamoyl)-5-(trifluoromethyl)pyrazol-1-yl)cyclohexane-1-carboxylic acid]
15800 pM | O=C(CN(CC1CC2(CC2)C1)C(=O)c1cnn([C@H]2CC[C@H](C(=O)O)CC2)c1C(F)(F)F)c1c(Cl)cncc1Cl [Example 200, trans-4-(4-((2-(3,5-dichloropyridin-4-yl)-2-oxoethyl)-(spiro[2.3]hexan-5-ylmethyl)carbamoyl)-5-(trifluoromethyl)pyrazol-1-yl)cyclohexane-1-carboxylic acid]
2.29e+06 pM | C[C@H](N(CC(=O)c1c(Cl)cncc1Cl)C(=O)c1cnn([C@H]2CC[C@H](C(=O)O)CC2)c1C(F)(F)F)C(C)(C)C [Example 114, trans-4-(4-((2-(3,5-dichloropyridin-4-yl)-2-oxoethyl)-((2S)-3,3-dimethylbutan-2-yl)carbamoyl)-5-(trifluoromethyl)pyrazol-1-yl)cyclohexane-1-carboxylic acid]
18600 pM | CC1(C)[C@@H]2C[C@H](N(CC(=O)c3c(Cl)cccc3Cl)C(=O)c3cnn([C@H]4CC[C@](C)(C(=O)O)CC4)c3C3CC3)C[C@@H]21 [Example 385, trans-4-(5-cyclopropyl-4-((2-(2,6-dichlorophenyl)-2-oxoethyl)((1R,3r,5S)-6,6-dimethylbicyclo[3.1.0]hexan-3-yl)carbamoyl)-1H-pyrazol-1-yl)-1-methylcyclohexanecarboxylic acid]
> 1e+07 pM | O=C(CN(Cc1cc(F)cc(F)c1)C(=O)c1cnn([C@H]2CC[C@H](C(=O)O)CC2)c1C(F)(F)F)C1CCCCC1 [Example 65, trans-4-(4-((2-cyclohexyl-2-oxoethyl)(3,5-difluorobenzyl)carbamoyl)-5-(trifluoromethyl)-1H-pyrazol-1-yl)cyclohexanecarboxylic acid]
24000 pM | C[C@]1(C(=O)O)CC[C@H](n2ncc(C(=O)N(CC(=O)c3c(Cl)cncc3Cl)CC3(C(F)(F)F)CC3)c2C(F)(F)F)CC1 [Example 330]
> 1e+07 pM | O=C(CN(C(=O)c1cnn([C@H]2CC[C@H](C(=O)O)CC2)c1C(F)(F)F)C1CCOCC1)c1c(Cl)cncc1Cl [Example 181, trans-4-(4-((2-(3,5-dichloropyridin-4-yl)-2-oxoethyl)-(oxan-4-yl)carbamoyl)-5-(trifluoromethyl)pyrazol-1-yl)cyclohexane-1-carboxylic acid]
66100 pM | CC(C)(C)[C@H]1C[C@H](N(CC(=O)c2c(Cl)cncc2Cl)C(=O)c2cnn([C@H]3CC[C@H](C(=O)O)CC3)c2C(F)(F)F)C1 [Example 132, trans-4-(4-((3-tert-butylcyclobutyl)-(2-(3,5-dichloropyridin-4-yl)-2-oxoethyl)carbamoyl)-5-(trifluoromethyl)pyrazol-1-yl)cyclohexane-1-carboxylic acid]
2.14e+06 pM | Cc1nccnc1C(O)CN(C(=O)c1cnn([C@H]2CC[C@](C)(C(=O)O)CC2)c1C(F)(F)F)[C@H]1C[C@@H]2[C@H](C1)C2(C)C (stereo partly drawn) [Example 410, trans-4-(4-(((1R,3r,5S)-6,6-dimethylbicyclo[3.1.0]hexan-3-yl)(2-hydroxy-2-(3-methylpyrazin-2-yl)ethyl)carbamoyl)-5-(trifluoromethyl)-1H-pyrazol-1-yl)-1-methylcyclohexanecarboxylic acid]
1.48e+06 pM | O=C(CN(Cc1cc(F)cc(F)c1)C(=O)c1cnn([C@H]2CC[C@H](O)CC2)c1C(F)(F)F)c1c(Cl)cncc1Cl [Example 85, N-(2-(3,5-dichloropyridin-4-yl)-2-oxoethyl)-N-(3,5-difluorobenzyl)-1-(trans-4-hydroxycyclohexyl)-5-(trifluoromethyl)-1H-pyrazole-4-carboxamide]
> 1e+07 pM | N[C@]1(C(=O)O)CC[C@@H](n2ncc(C(=O)N(CC(=O)c3c(Cl)cncc3Cl)Cc3ccc(F)cc3)c2C(F)(F)F)CC1 [Example 116, cis-4-(4-((2-(3,5-dichloropyridin-4-yl)-2-oxoethyl)-((4-fluorophenyl)methyl)carbamoyl)-5-(trifluoromethyl)pyrazol-1-yl)-1-aminocyclohexane-1-carboxylic acid]
> 1e+07 pM | O=C(CN(Cc1cc(F)cc(F)c1)C(=O)c1cnn([C@H]2CC[C@H](C(=O)O)CC2)c1CO)c1c(Cl)cncc1Cl [Example 159, trans-4-(4-((2-(3,5-dichloropyridin-4-yl)-2-oxoethyl)-((3,5-difluorophenyl)methyl)carbamoyl)-5-(hydroxymethyl)pyrazol-1-yl)cyclohexane-1-carboxylic acid]
93300 pM | CC(=O)Nc1cccc(Cl)c1C(=O)CN(Cc1cc(F)cc(F)c1)C(=O)c1cnn([C@H]2CC[C@H](C(=O)O)CC2)c1C(F)(F)F [Example 13, trans-4-(4-((2-(2-acetamido-6-chlorophenyl)-2-oxoethyl)(3,5-difluorobenzyl)carbamoyl)-5-(trifluoromethyl)-1H-pyrazol-1-yl)cyclohexanecarboxylic acid]
2.09e+06 pM | O=C(CN(CC1CCOCC1)C(=O)c1cnn([C@H]2CC[C@H](C(=O)O)CC2)c1C(F)(F)F)c1c(Cl)cncc1Cl [Example 71, trans-4-(4-((2-(3,5-dichloropyridin-4-yl)-2-oxoethyl)((tetrahydro-2H-pyran-4-yl)methyl)carbamoyl)-5-(trifluoromethyl)-1H-pyrazol-1-yl)cyclohexanecarboxylic acid]
41700 pM | CC(C)=CCN(CC(=O)c1c(Cl)cncc1Cl)C(=O)c1cnn([C@H]2CC[C@](C)(C(=O)O)CC2)c1C(F)(F)F [Example 314, trans-4-(4-((2-(3,5-dichloropyridin-4-yl)-2-oxoethyl)-(3-methylbut-2-enyl)carbamoyl)-5-(trifluoromethyl)pyrazol-1-yl)-1-methylcyclohexane-1-carboxylic acid]
58900 pM | O=C(CN(Cc1cc(F)ccc1F)C(=O)c1cnn([C@H]2CC[C@H](C(=O)O)CC2)c1C(F)(F)F)c1c(Cl)cncc1Cl [Example 45, trans-4-(4-((2-(3,5-dichloropyridin-4-yl)-2-oxoethyl)(2,5-difluorobenzyl)carbamoyl)-5-(trifluorornethyl)-1H-pyrazol-1-yl)cyclohexanecarboxylic acid]
8130 pM | Cc1cc(C)c(C(=O)CN(Cc2cc(F)cc(F)c2)C(=O)c2cnn([C@H]3CC[C@H](C(=O)O)CC3)c2C(F)(F)F)c(Cl)c1 [Example 269, trans-4-(4-((2-(2-chloro-4,6-dimethylphenyl)-2-oxoethyl)-((3,5-difluorophenyl)methyl)carbamoyl)-5-(trifluoromethyl)pyrazol-1-yl)cyclohexane-1-carboxylic acid]
87100 pM | O=C(CN(CC1CCC(F)(F)CC1)C(=O)c1cnn([C@H]2CC[C@H](C(=O)O)CC2)c1C(F)(F)F)c1c(Cl)cncc1Cl [Example 101, trans-4-(4-((2-(3,5-dichloropyridin-4-yl)-2-oxoethyl)-((4,4-difluorocylohexyl)methyl)carbamoyl)-5-(trifluoromethyl)pyrazol-1-yl)cyclohexane-1-carboxylic acid]
158000 pM | C[C@@H](N(CC(=O)c1c(Cl)cncc1Cl)C(=O)c1cnn([C@H]2CC[C@H](C(=O)O)CC2)c1C(F)(F)F)C(C)(C)C [Example 115, trans-4-(4-((2-(3,5-dichloropyridin-4-yl)-2-oxoethyl)-((2R)-3,3-dimethylbutan-2-yl)carbamoyl)-5-(trifluoromethyl)pyrazol-1-yl)cyclohexane-1-carboxylic acid]
1.2e+06 pM | CCC(CC)N(CC(=O)c1c(Cl)cncc1Cl)C(=O)c1cnn([C@H]2CC[C@](C)(C(=O)O)CC2)c1C(F)(F)F [Example 287, trans-4-(4-((2-(3,5-dichloropyridin-4-yl)-2-oxoethyl)-pentan-3-ylcarbamoyl)-5-(trifluoromethyl)pyrazol-1-yl)-1-methylcyclohexane-1-carboxylic acid]
148000 pM | O=C(CN(Cc1cncnc1)C(=O)c1cnn([C@H]2CC[C@H](C(=O)O)CC2)c1C(F)(F)F)c1c(Cl)cccc1Cl [Example 146, trans-4-(4-((2-(2,6-dichlorophenyl)-2-oxoethyl)-(pyrimidin-5-ylmethyl)carbamoyl)-5-(trifluoromethyl)pyrazol-1-yl)cyclohexane-1-carboxylic acid]
30200 pM | CC1(C)CCC(N(CC(=O)c2c(Cl)cc(Cl)cc2Cl)C(=O)c2cnn([C@H]3CC[C@H](C(=O)O)CC3)c2C(F)(F)F)CC1 [Example 189, trans-4-(4-((4,4-dimethylcyclohexyl)-(2-oxo-2-(2,4,6-trichlorophenyl)ethyl)carbamoyl)-5-(trifluoromethyl)pyrazol-1-yl)cyclohexane-1-carboxylic acid]
107000 pM | COc1cccc(Cl)c1[C@H](O)CN(C(=O)c1cnn([C@H]2CC[C@](C)(C(=O)O)CC2)c1Cl)[C@H]1C[C@@H]2[C@H](C1)C2(C)C [Example 375, trans-4-(5-chloro-4-((2-(2-chloro-6-methoxyphenyl)-2-hydroxyethyl)((1R,3r,5S)-6,6-dimethylbicydo[3.1.0]hexan-3-yl)carbamoyl)-1H-pyrazol-1-yl)-1-methylcyclohexanecarboxylic acid]
